The source of these data is article PMC9774334 (ACS Omega, 2022).

One experiment addresses T1, TmaFuc (Thermotoga maritima, UniProt Q9WYE2).
T1 sequence (Q9WYE2 1-449): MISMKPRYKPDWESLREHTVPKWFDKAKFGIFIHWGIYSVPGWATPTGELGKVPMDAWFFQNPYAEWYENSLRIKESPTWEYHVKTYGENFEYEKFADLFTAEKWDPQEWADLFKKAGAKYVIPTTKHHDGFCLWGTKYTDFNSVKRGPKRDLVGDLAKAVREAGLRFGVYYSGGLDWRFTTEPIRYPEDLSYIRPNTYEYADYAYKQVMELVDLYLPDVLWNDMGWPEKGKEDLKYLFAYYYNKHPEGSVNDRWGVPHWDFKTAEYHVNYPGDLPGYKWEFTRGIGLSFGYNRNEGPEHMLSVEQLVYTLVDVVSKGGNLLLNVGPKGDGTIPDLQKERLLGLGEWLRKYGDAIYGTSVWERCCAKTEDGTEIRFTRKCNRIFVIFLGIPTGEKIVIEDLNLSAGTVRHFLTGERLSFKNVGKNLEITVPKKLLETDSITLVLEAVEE
Put plainly: p-nitrophenol release at […] nm. In kind it is biochemical. To be noted: 2 mM substrate.

A further experiment has as its target T2, ClAgl29B (Cecembia lonarensis, UniProt K1KV82).
T2 sequence (K1KV82 21-586): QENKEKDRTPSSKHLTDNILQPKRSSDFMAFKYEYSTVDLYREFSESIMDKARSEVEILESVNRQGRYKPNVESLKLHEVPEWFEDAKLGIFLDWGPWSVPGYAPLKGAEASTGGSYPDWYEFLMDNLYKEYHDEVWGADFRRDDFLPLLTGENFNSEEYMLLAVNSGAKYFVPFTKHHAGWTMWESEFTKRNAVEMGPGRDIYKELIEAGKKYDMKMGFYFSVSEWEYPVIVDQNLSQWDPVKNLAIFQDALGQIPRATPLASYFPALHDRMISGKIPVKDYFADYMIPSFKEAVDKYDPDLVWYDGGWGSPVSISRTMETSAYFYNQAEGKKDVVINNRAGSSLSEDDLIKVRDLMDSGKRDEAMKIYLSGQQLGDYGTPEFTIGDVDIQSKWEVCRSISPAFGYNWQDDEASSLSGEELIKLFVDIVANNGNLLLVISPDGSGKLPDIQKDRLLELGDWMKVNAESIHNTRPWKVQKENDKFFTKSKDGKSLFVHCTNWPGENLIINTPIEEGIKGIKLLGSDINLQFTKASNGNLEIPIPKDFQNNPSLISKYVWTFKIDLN
Put plainly: X-ray crystal structure, […] Å, soaking. In kind it is binding. To be noted: active site; crystal pH 3.5, 30 mM L-glucose soak.

As for `C[C@@H]1O[C@@H](Oc2ccc([N+](=O)[O-])cc2)[C@@H](O)[C@H](O)[C@@H]1O` [PNP α-L-Fuc], at TmaFuc, the “p-nitrophenol release at 400 nm” value is “TmaFuc hydrolyzed PNP α-L-Fuc”. Consider `OC[C@@H]1O[C@H](O)[C@@H](O)[C@H](O)[C@H]1O` [β-L-glucose], for which the “X-ray crystal structure, 1.7 Å, soaking” value on ClAgl29B is listed as “The ClAgl29B complex obtained with β-L-glucose by a soaking experiment”.
